{
  "source": "patent US20190194279A1",
  "about": "“Wound Healing Peptide” (James Cook University, priority 2016, published 2019)",
  "key": {"H69 cells": {"tested_on": "H69 cells", "assay": "Cell proliferation monitoring in real time using xCELLigence (Example 2, 200 nM, 48 h)", "format": "cell-based, human", "details": "200 nM peptide", "method": "H69 cell line, non-malignant cholangiocyte cell line was obtained from Dr. Gregory J. Gores, Mayo Clinic, Rochester, Minn.^34. H69 cells were grown and maintained as previously described^34 in DMEM/F12 (Life Technologies) containing 1× antibiotic/antimycotic and 15 mM HEPES, supplemented with 10% fetal bovine serum (FBS) (Gibco, Scotland) at 37 C and 5% incubator. Cell proliferation assays were performed with modified DMEM/F12 media supplemented with 0.5% FBS and particular hormone and growth factors in a certain concentration range as listed in the previous study^34.\nProliferation study in real time was performed using xCELLigence SP system (ACEA Biosciences) as described previously^34. H69 cells were plated into a 96-well xCELLigence E-plate (ACEA Biosciences) at a density of 2000 cells/well; then placed in the xCELLigence system positioned in a 5% CO2 incubator at 37° C. and monitored overnight^47. Then, the complete media was replaced with 180 μl of starvation media (modified DMEM/F12 media supplemented with […] as described previously^34) and incubated for at least 6 hour. Treatments were added to each well in a total volume of 20 μl to provide 200 nM final concentrations. […] Cell proliferation rate was calculated as the relative numbers of treated cells compared to control cells over time (48 hours in culture). […] Each treatment was measured in quadruplicate."}, "[1]": {"tested_on": "skin-deep wound on the crown of the head", "format": "in vivo, BALB/c mice", "details": "mouse; for day 4 wound healing relative to controls, result in words (Example 3): 56 pmoles topical daily days 0-4, relative to peptide control", "method": "These studies were conducted with the approval of the James Cook University Small Animal Ethics Committee, applications A1806 and A2204, as described^6. Briefly, 4-5 female BALB/c mice per group were anesthetized (intraperitoneal xylazine 16 mg/kg; ketamine 80 mg/kg), after which a skin-deep wound on the crown of the head was inflicted using a 5 mm biopsy punch (Zivic instruments). […] Wounds were photographed daily and after blinding treatment groups the area of the lesion was measured with ImageJ software and plotted as percent of wound closure from original wound images. […] Each mouse wounding study was conducted at least twice to provide reproducibility.\nDay 4 wound healing were assessed using peptides as described herein (Ov-GRN-1, Ov-GRN1-35, Ov-GRN8-38, Ov-GRN12-34, Ov-GRN12-35_3s, GRN24-3ala, GRN24-P2A, GRN24-P4A, and GRN27sps)."}, "H69 human cholangiocytes": {"tested_on": "H69 human cholangiocytes", "assay": "Cell proliferation monitoring in real time using xCELLigence (Example 1, day 4)", "format": "cell-based", "details": "for increase in cell proliferation over peptide controls: at 400 nM; for cell proliferation, result in words: concentrations tested 10 nM-2 μM", "text": "Mammalian Cell Culture The non-malignant cholangiocyte cell line H69 is a SV40-transformed human bile duct epithelial cell line derived from human liver, kindly provided by Dr. Gregory J. Gores, Mayo Clinic, Rochester, Minn. H69 cells^23, 29, 30 were maintained in T75 cm^2 vented flasks (Corning) as monolayers as described^31 with minor modifications. Cells were maintained with regular splitting using 0.25% trypsin (Life Technologies) every 2-5 days in complete media [RPMI (Sigma) with growth factor-supplemented specialist complete media^30 [DMEM/F12 with high glucose, 10% FCS, 1×antibiotic/antimycotic, 25 μg/ml adenine, 5 μg/ml insulin, 1 μg/ml epinephrine, 8.3 μg/ml holo-transferrin, 0.62 μg/ml, hydrocortisone, 13.6 ng/ml T3 and 10 ng/ml EGF—Life Technologies]. Low nutrient media for cell proliferation assays was 5% complete media, i.e. 0.5% FCS and 1/20th of the growth factor concentrations listed above for complete media. The identities (human-derived) of the cell line were confirmed with […] (STR) analysis in January 2015 (15/15 positive loci across 2 alleles) and mycoplasma free at the DNA Diagnostics Centre (DDC)-medical (U.S.A.), accredited/certified by CAP, ISO/IEC 17025:2005 through ACLASS.\nCell proliferation monitoring in real time using xCELLigence Cells were seeded at 1,500 cells/well in 180 μl complete media (above) in E-plates (ACEA Biosciences) and grown overnight while monitored with an xCELLigence SP system (ACEA Biosciences) which monitors cellular events in real time by measuring electrical impedance across interdigitated gold micro-electrodes integrated into the base of tissue culture plates^32. Cells were washed three times with PBS prior to addition of 180 μl of low nutrient media (above) and incubated for a minimum of 6 h before further treatment. Treatments were prepared at 10× concentration and added to each well in a total volume of 20 μl. The xCELLigence system recorded cell indexes at intervals of one hour for 5-6 days following treatment. Readings for the cell index were normalized prior to treatment and cell proliferation ratios were determined from biological quadruplicates and represent the relative numbers of cells compared to control cells at day 4. Comparisons of induction of cell proliferation in response to treatments were accomplished using two-way ANOVA test with Dunnett's multiple comparison correction, using GraphPad Prism 6.02."}},
  "note": "“Also recorded” adds a separate entry of the source. Where no end group is shown, it is not given here.",
  "data": [
    {"substance": "CPDPVYTCRAGQTCCRGLHGYGCC [P10A]", "values": [
      {"measurement": "proliferation rate relative to the control peptide", "setting": "H69 cells", "result": 131.4, "unit": "%"}
    ]},
    {"substance": "Ov-GRN1-35: truncated Ov-GRN-1 peptide, residues 1-35, four cysteines, two disulfide bonds, Cys IV and Cys VI replaced with alanine (MDTLQPIRSPSCPDPVYTCRPGQTCARGLHGYGCA; disulfide (positions not given here))", "values": [
      {"measurement": "day 4 wound healing relative to controls, result in words (Example 3)", "setting": "[1]", "result": "significant increases in wound healing"},
      {"measurement": "increase in cell proliferation over peptide controls", "setting": "H69 human cholangiocytes", "result": 9, "unit": "%"}
    ]},
    {"substance": "CADPVYTCRPGQTCCRGLHGYGCC [GRN24P2A]", "values": [
      {"measurement": "proliferation rate relative to the control peptide", "setting": "H69 cells", "result": 131.7, "unit": "%"}
    ]},
    {"substance": "Ov-GRN12-34: minimal Ov-GRN-1 sequence that contains the four cysteine residues, two disulfide bonds (CPDPVYTCRPGQTCARGLHGYGC; disulfide (positions not given here))", "values": [
      {"measurement": "day 4 wound healing relative to controls, result in words (Example 3)", "setting": "[1]", "result": "significant increases in wound healing"}
    ]},
    {"substance": "carp granulin1-30: N-terminal 30 residues of carp granulin-1 with Cys IV and Cys VI replaced with alanine residues (VIHCDAATICPDGTTCALSPYGVWYCAPFS) [reference compound]", "values": [
      {"measurement": "maximum proliferation over peptide controls", "setting": "H69 human cholangiocytes; at 32 nM", "result": 9, "unit": "%"},
      {"measurement": "cell proliferation, result in words", "setting": "H69 human cholangiocytes", "result": "minimal cell proliferation (non-significant); also recorded: no substantial proliferation"}
    ]},
    {"substance": "CPDAVYTCRPGQTCCRGLHGYGCC [P4A]", "values": [
      {"measurement": "proliferation rate relative to the control peptide", "setting": "H69 cells", "result": 141.6, "unit": "%"}
    ]},
    {"substance": "CADAVYTCRAGQTCCRGLHGYGCC [GRN3Ala]", "values": [
      {"measurement": "effect on cell proliferation compared to the control peptide, result in words", "setting": "H69 cells", "result": "did not have statistically significant effect"},
      {"measurement": "effect on cell proliferation compared to the control peptide, result in words", "setting": "H69 cells; listed as SEQ ID NO:9", "result": "did not enhance cell proliferation"}
    ]},
    {"substance": "CPDPVYTCRPGQTCCRGLHGYGCC [Ov-GRN12-35_3s]", "values": [
      {"measurement": "wound healing activity in vivo compared with the other Ov-GRN-1 peptides, in words", "setting": "[1]", "result": "no more active in vivo than the other Ov-GRN-1 peptides"},
      {"measurement": "day 4 wound healing relative to controls, result in words (Example 3)", "setting": "[1]", "result": "significant increases in wound healing"},
      {"measurement": "increase in cell proliferation over peptide controls", "setting": "H69 human cholangiocytes", "result": 26, "unit": "%"},
      {"measurement": "cell proliferation, result in words", "setting": "H69 human cholangiocytes", "result": "most potent peptide in the cell proliferation assay"},
      {"measurement": "increase in cell growth compared to control peptide", "setting": "H69 human cholangiocytes; final concentration of 2 (unit not given), day 4", "result": 41, "unit": "%"},
      {"measurement": "final concentrations with significantly increased cell proliferation (p<0.05)", "setting": "H69 human cholangiocytes; four days after single application", "result": "> 15", "unit": "nM"}
    ]},
    {"substance": "Ov-GRN8-38: truncated Ov-GRN-1 peptide, residues 8-38, two disulfide bonds (RSPSCPDPVYTCRPGQTCARGLHGYGCAPMD; disulfide (positions not given here))", "values": [
      {"measurement": "day 4 wound healing relative to controls, result in words (Example 3)", "setting": "[1]", "result": "significant increases in wound healing"}
    ]}
  ]
}
